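Dose response: 5 concentrations. Exposure: 48 h. Format: 96-well plates. Endpoint: linear interpolation; highest concentration if not reached. At the GI50, growth is halved. At the TGI there is no net growth.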
System: MOLT-4 leukemia
Assay: DTP human tumour cell line panel, 48 h

Structure (SMILES)	TGI	GI50
CC(=O)OC12C=CC(=O)N1c1ccccc1C(=O)O2 (stereo unspecified)	> 100 µM	–
Cc1cc(Cl)ccc1NC(=O)C(=O)Cc1nc2ccccc2o1	> 100 µM	–
OCC1OC(c2nc(C3=NCCCN3)cs2)C(O)C1O (stereo unspecified)	> 100 µM	–
CCC(C)COC(=O)c1ccc(N=Cc2ccc(C=Nc3ccc(C(=O)OCC(C)CC)cc3)cc2)cc1 (stereo unspecified)	> 100 µM	–
Cc1cc(N(CCC#N)CCC#N)ccc1N=Nc1ccc(C(=O)O)cc1	> 100 µM	–
CN(C)CC1CCCC/C1=N/OC(=O)c1ccc(Cl)cc1 (stereo unspecified)	> 100 µM	–
N#CC(C(=O)C(=O)C(C#N)c1ccc(Br)cc1)c1ccc(Br)cc1 (stereo unspecified)	47.1 µM	–
COc1cccc(C2=NC(C(C)C)CO2)c1 (stereo unspecified)	> 100 µM	–
CCCc1nc(NC#N)nc(C(=O)Nc2ccccc2)c1CC	> 100 µM	–
O=C(CCc1n[nH]c(=S)o1)Nc1ccccc1C(F)(F)F	> 100 µM	–
COc1cc2c(c(OC)c1OC)-c1ccc(SC)c(=O)cc1C(NC=O)CC2 (stereo unspecified)	48.9 µM	–
Cc1ccc(NC(=O)CCc2cc(C(C)(C)C)nc(=S)[nH]2)cc1C	> 100 µM	–
Cc1[nH]c2ccccc2c1C(=O)/C=C/c1ccccc1O	> 100 µM	–
COc1ccc(CC2NCCc3c2[nH]c2ccccc32)cc1 (stereo unspecified)	> 100 µM	–
CCOc1ccc(NC(=O)CC#N)cc1	> 100 µM	–
O=C(/C=C/c1cccc2ccccc12)c1ccccc1Cl	8.82 µM	–
Cc1ccc(/C=C/C(=O)c2sc(-c3nc(C)c(C(=O)/C=C/c4ccc(C)cc4)s3)nc2C)cc1	> 100 µM	–
O=C1/C(=C/c2ccc(Cl)cc2)CCC1CCN1CCOCC1 (stereo unspecified)	82.6 µM	–
CC[C@H]1[C@@H]2C=C[C@@H]3[C@H]4C/C=C\C(=O)NCCC[C@@H]5NC(=O)/C(=C(O)/C=C/[C@@H]4C[C@@H]3[C@H]2C[C@H]1C)C5=O	3.47 µM	1.48 µM
O=C1Nc2ccccc2/C1=N\[O-].O=C1Nc2ccccc2/C1=N\[O-].[Cu+2]	> 100 µM	> 100 µM
CN1C(=O)N(C)C2C1NN=c1s/c(=C\c3ccc(Cl)cc3Cl)c(=O)n12 (stereo unspecified)	> 100 µM	0.363 µM
CCC[CH2][Sn]([Cl])([CH2]CCC)[CH2]CCC	0.632 µM	0.0522 µM
Cc1ccc(NC(=O)CC2CC2)cc1-c1ccc(C(=O)NCC2CC2)cc1	> 25 µM	> 25 µM
CCOC(=O)Nc1ccc(C)c(NC(=O)OCC)c1	> 100 µM	–
O=c1ccn([C@H]2CSC[C@@H](CO)C2)c(=O)[nH]1	> 100 µM	–
CNCC#Cc1c(F)ccc2c1/C(=C/c1[nH]ccc1OC)C(=O)N2	2.26 µM	0.132 µM
COc1cc(-n2cc(-c3ccc(F)cc3)[nH]c2=O)cc(OC)c1OC	> 100 µM	> 100 µM
Cn1cc(C2=C(c3cn(CCCCO)c4ccccc34)C(=O)NC2=O)c2ccccc21	> 22 µM	7.68 µM
C1CN2CCN3CCN4CCN1[P+]243	> 100 µM	–

System: NCI-H226 lung
Assay: DTP human tumour cell line panel, 48 h

Structure (SMILES)	GI50	TGI
COc1cc(NCc2ccc3nc(N)nc(N)c3c2C)cc(OC)c1OC (tested in a mixture with another compound)	0.0892 µM	52.8 µM
COc1ccc(NC(=O)/C(Cc2cc(=O)oc3cc(O)ccc23)=N\NC(C)(C)C)c(OC)c1	–	> 100 µM
O=C1/C(=C/c2ccc3c(c2)OCO3)SC2C=Nc3ccccc3N12 (stereo unspecified)	–	> 100 µM
CCOc1ccc(NC(=O)C(=O)CC(=O)c2c(C)n([O-])c3ccccc3[n+]2=O)cc1	–	> 100 µM
CC(=O)OC12C=CC(=O)N1c1ccccc1C(=O)O2 (stereo unspecified)	–	> 100 µM
OCC1OC(c2nc(C3=NCCCN3)cs2)C(O)C1O (stereo unspecified)	–	> 100 µM
CCC(C)COC(=O)c1ccc(N=Cc2ccc(C=Nc3ccc(C(=O)OCC(C)CC)cc3)cc2)cc1 (stereo unspecified)	–	> 100 µM
Cc1cc(N(CCC#N)CCC#N)ccc1N=Nc1ccc(C(=O)O)cc1	–	> 100 µM
CN(C)CC1CCCC/C1=N/OC(=O)c1ccc(Cl)cc1 (stereo unspecified)	–	> 100 µM
N#CC(C(=O)C(=O)C(C#N)c1ccc(Br)cc1)c1ccc(Br)cc1 (stereo unspecified)	–	34.8 µM
COc1cccc(C2=NC(C(C)C)CO2)c1 (stereo unspecified)	–	> 100 µM
CCCc1nc(NC#N)nc(C(=O)Nc2ccccc2)c1CC	–	> 100 µM
O=C(CCc1n[nH]c(=S)o1)Nc1ccccc1C(F)(F)F	–	> 100 µM
COc1cc2c(c(OC)c1OC)-c1ccc(SC)c(=O)cc1C(NC=O)CC2 (stereo unspecified)	–	0.754 µM
Cc1ccc(NC(=O)CCc2cc(C(C)(C)C)nc(=S)[nH]2)cc1C	–	> 100 µM
O=C(Nc1nc(=S)c2c(ncn2CCOC(=O)c2ccccc2)[nH]1)c1ccccc1	–	> 100 µM

Structure (SMILES)	GI50	TGI
COc1ccc(CC2NCCc3c2[nH]c2ccccc32)cc1 (stereo unspecified)	–	> 100 µM
CCOc1ccc(NC(=O)CC#N)cc1	–	> 100 µM
O=C(/C=C/c1cccc2ccccc12)c1ccccc1Cl	–	> 100 µM
Cc1ccc(/C=C/C(=O)c2sc(-c3nc(C)c(C(=O)/C=C/c4ccc(C)cc4)s3)nc2C)cc1	–	> 100 µM
O=C1/C(=C/c2ccc(Cl)cc2)CCC1CCN1CCOCC1 (stereo unspecified)	–	> 100 µM
CC[C@H]1[C@@H]2C=C[C@@H]3[C@H]4C/C=C\C(=O)NCCC[C@@H]5NC(=O)/C(=C(O)/C=C/[C@@H]4C[C@@H]3[C@H]2C[C@H]1C)C5=O	0.738 µM	2.56 µM
O=C1Nc2ccccc2/C1=N\[O-].O=C1Nc2ccccc2/C1=N\[O-].[Cu+2]	> 100 µM	> 100 µM
CN1C(=O)N(C)C2C1NN=c1s/c(=C\c3ccc(Cl)cc3Cl)c(=O)n12 (stereo unspecified)	0.623 µM	> 100 µM
Cc1ccc(NC(=O)CC2CC2)cc1-c1ccc(C(=O)NCC2CC2)cc1	> 25 µM	> 25 µM
CCOC(=O)Nc1ccc(C)c(NC(=O)OCC)c1	–	> 100 µM
O=c1ccn([C@H]2CSC[C@@H](CO)C2)c(=O)[nH]1	–	> 100 µM
CNCC#Cc1c(F)ccc2c1/C(=C/c1[nH]ccc1OC)C(=O)N2	0.211 µM	1.36 µM
COc1cc(-n2cc(-c3ccc(F)cc3)[nH]c2=O)cc(OC)c1OC	> 100 µM	> 100 µM
Cn1cc(C2=C(c3cn(CCCCO)c4ccccc34)C(=O)NC2=O)c2ccccc21	7.55 µM	> 25 µM
C1CN2CCN3CCN4CCN1[P+]243	–	> 100 µM

System: SF-295 CNS
Assay: DTP human tumour cell line panel, 48 h

Structure (SMILES)	GI50	TGI
COc1cc(NCc2ccc3nc(N)nc(N)c3c2C)cc(OC)c1OC (tested in a mixture with another compound)	0.000372 µM	–
COc1ccc(NC(=O)/C(Cc2cc(=O)oc3cc(O)ccc23)=N\NC(C)(C)C)c(OC)c1	–	> 100 µM
O=C1/C(=C/c2ccc3c(c2)OCO3)SC2C=Nc3ccccc3N12 (stereo unspecified)	–	> 100 µM
CCOc1ccc(NC(=O)C(=O)CC(=O)c2c(C)n([O-])c3ccccc3[n+]2=O)cc1	–	> 100 µM
CC(=O)OC12C=CC(=O)N1c1ccccc1C(=O)O2 (stereo unspecified)	–	> 100 µM
Cc1cc(Cl)ccc1NC(=O)C(=O)Cc1nc2ccccc2o1	–	> 100 µM
OCC1OC(c2nc(C3=NCCCN3)cs2)C(O)C1O (stereo unspecified)	–	> 10 µM
CCC(C)COC(=O)c1ccc(N=Cc2ccc(C=Nc3ccc(C(=O)OCC(C)CC)cc3)cc2)cc1 (stereo unspecified)	–	> 100 µM
Cc1cc(N(CCC#N)CCC#N)ccc1N=Nc1ccc(C(=O)O)cc1	–	> 100 µM
CN(C)CC1CCCC/C1=N/OC(=O)c1ccc(Cl)cc1 (stereo unspecified)	–	> 100 µM
N#CC(C(=O)C(=O)C(C#N)c1ccc(Br)cc1)c1ccc(Br)cc1 (stereo unspecified)	–	26.6 µM
COc1cccc(C2=NC(C(C)C)CO2)c1 (stereo unspecified)	–	> 100 µM
CCOC(=O)C(=[N+]=[N-])[Si](C)(C)C	–	> 100 µM
CCCc1nc(NC#N)nc(C(=O)Nc2ccccc2)c1CC	–	> 100 µM
O=C(CCc1n[nH]c(=S)o1)Nc1ccccc1C(F)(F)F	–	> 100 µM
COc1cc2c(c(OC)c1OC)-c1ccc(SC)c(=O)cc1C(NC=O)CC2 (stereo unspecified)	–	0.123 µM
Cc1ccc(NC(=O)CCc2cc(C(C)(C)C)nc(=S)[nH]2)cc1C	–	> 100 µM
Cc1[nH]c2ccccc2c1C(=O)/C=C/c1ccccc1O	–	> 100 µM
O=C(Nc1nc(=S)c2c(ncn2CCOC(=O)c2ccccc2)[nH]1)c1ccccc1	–	> 100 µM
COc1ccc(CC2NCCc3c2[nH]c2ccccc32)cc1 (stereo unspecified)	–	> 100 µM
CCOc1ccc(NC(=O)CC#N)cc1	–	> 100 µM
Cc1ccc(/C=C/C(=O)c2sc(-c3nc(C)c(C(=O)/C=C/c4ccc(C)cc4)s3)nc2C)cc1	–	> 100 µM
O=C1/C(=C/c2ccc(Cl)cc2)CCC1CCN1CCOCC1 (stereo unspecified)	–	> 100 µM
CC[C@H]1[C@@H]2C=C[C@@H]3[C@H]4C/C=C\C(=O)NCCC[C@@H]5NC(=O)/C(=C(O)/C=C/[C@@H]4C[C@@H]3[C@H]2C[C@H]1C)C5=O	1.42 µM	2.8 µM

Source: PubChem BioAssay (NCI)
